Assay results taken from patent publication US10155985B2, “Evaluation of eosinophilic esophagitis” (CHILDREN'S HOSPITAL MEDICAL CENTER, priority 2004, dated 2018).

Legend:
eosinophilic esophagitis = settings: cited from earlier work
EE transcriptome [1] = assay: EE transcriptome of EE patients after fluticasone propionate treatment; type: in vivo, human; settings: EE patients treated; FIG. 6
Description: The data were analyzed by cluster analysis and ordered (standard correlation (A) and distance (B)) using Genespring software. […] Each column represented a separate individual and each line a gene. RNA from each patient was subjected to chip analysis using Affymetrix Human Genome U133 GeneChip plus 2.
In one embodiment, the EE transcriptome was used to evaluate EE patients pre- and post-treatment regimens.
This group of 13 non-responsive genes is SEQ ID NOS. 6, 35, 43, 61, 129, 1358, 1441, 1515, 1538, 1584, 1615, 1618, and 1620. Evaluation of these genes provides a marker of past, present, and/or future active disease, especially in the absence of overt disease. […] Thus, these 13 genes can be used to evaluate a patients propensity to EE, particularly in the absence of clinical or physical symptoms of EE or microscopic findings typical of EE. […] These 13 genes can be used to evaluate EE in an asymptomatic population or when past EE is suspected in a non-active EE individual at the time of endoscopy.

[2] = system: esophageal epithelial cells; assay: Transcriptome of esophageal epithelial cells stimulated with IL-13, compared to the EE transcriptome; type: cell-based
Text: In one embodiment, the EE transcriptome was compared to transcriptomes in cell/tissues that had been treated with one or more compounds potentially involved with and/or efficacious against EE. By comparing the EE transcriptome to the transcriptome of, e.g., a simple in vitro or ex vivo model of a particular compound, one can assess the percentage of genes that are dysregulated in EE due to that particular compound.
For example, in ex vivo or in vitro models, a compound was used to stimulate an esophageal cell type.

EE transcriptome [3] = assay: Genome-wide microarray transcript profiling of esophageal biopsies, EE patients vs normal individuals (EE transcriptome); settings: transcript level in esophageal biopsies of EE patients (n=76) compared to normal individuals (n=13); Affymetrix Human Genome U133 plus 2; p<0.01
How it was run: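 Distal esophageal biopsies from EE patients (n=76; >24 eosinophils/hpf, basal hyperplasia) and normal controls (n=13; 0 eosinophils/hpf) profiled on Affymetrix Human Genome U133 plus 2 chips. Expression by absolute call and average difference, global scaling; transcriptome genes defined as p<0.01 (Welch t-test) and ≥1.5-fold change.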

For `CCC(=O)O[C@]1(C(=O)SCF)[C@H](C)C[C@H]2[C@@H]3C[C@H](F)C4=CC(=O)C=C[C@]4(C)[C@@]3(F)[C@@H](O)C[C@@]21C` [fluticasone propionate], the “effect on EE disease” value (eosinophilic esophagitis; Gastroenterology 131 (2006) 1381) is listed as “induce EE disease remission”, the “effect on EE gene dysregulation” value (eosinophilic esophagitis; J. Allergy Clin. Immunol. 120 (2007) 1292, U.S. Ser. No. 61/118,981) is listed as “reverse EE gene dysregulation” and the “number of EE transcriptome genes normalized by treatment” value (EE transcriptome [1]) is listed as 1605 genes/1620 genes. The “number of EE transcriptome genes resistant to treatment” value (EE transcriptome [1]) was 13 genes/1620 genes and the “share of the EE transcriptome resistant to treatment” value (EE transcriptome [1]) was “less than 1%”.

With interleukin 13 [IL-13] the “share of the genes of the EE transcriptome potentially due to stimulation of esophageal epithelial cells” value [2] was 20%.

B1: SEQ_ID_#43 (nucleic acid, listed as Homo sapiens)
DNA: TTCACTTTTTCATTATTTTATTGTTGTTTTAGTAGCATTTTGAGGTGAATGTATGCATAATCAGTGAATTAGACAAGCATGCACATACATGATATCTGATCAAACATTTTTTTGTCTCTCATCATCCTCATAAAATTTATTCAGTGGGAGAAGCTTTTTCTTCCATCAGATACATTCCAGTTGTATGCCAACATACTCAGGTAAGAGCAACATTTTGGTCATTTTAAATAGTTTGGTAATTATGACTCCCAGTCGCCTACAATAAGAAGAAACTACAATAATTTAGTACTAAATTTTTCTTCCCTCTCCAACTGAGTCTTGTGTTGAGTTGCCTACTTGCGCTAGCACATCTTCCCTTGCTGGTTGACATTTTTGCTAAGATTTCTCCCTCTCCTTCCACCCCACCTTGGACACGGAGGTTTCTGGCCTCCCTTTCCCCAAGGTCCCCAAAAAAAGAAATCTGTCTTATGAGATAGGGCTGCCTTCACATGGTGTCAGGGTTCTCTGGATAGTAATTGTGTGTAATAAGAGAGGGAGCATTCAAGAACTCCCATAGAAATTCTCATAGCCCTGACTTCTCATCTTTAGCTTGTGTAGATTTTTTTGTATTCCAGGTGGTCATTTGTGACTCCTTCCTCATCCCACAATCTGGCTTCACCTCCCACTTCTTGATGCTGGGTTCCCTCCACCTCTTTGGACAACCTATCAGAGAGGACCTAAAGAGCCCATGCTGACTTCACTCTTGCATGTCTCACTATGGTTCATGGGAAACCACACATCCATTGCCCTGACAACACTAGACATACAGGC
In the case of B1, the “Fold Change” value (EE transcriptome [3]) is reported as 5.944.

B2: SEQ_ID_#243 (nucleic acid, listed as Homo sapiens)
DNA: GGAAAGAGAGGAGAGGGGAGGGGAAGAGAGGGGAGGGAAGGGCAGGGCAGGGCAGAGCCCGGCAGGCAGCCCTCAGAGGAGGGGCGCAGGCCCCAGCCCAAGGCCTCCCGCGCCTGCCCAGGTCCCGGCCTCCATCGTCCAGGGCTCTGGGGCTCCCAGGGGAGACACCCACGCTCGGCCAAGCCCAGGGTTCCAGAAGCCCAGGGGTGGCGGCAGCCGGGCTCAGCCTATGGCCAGGCTCGCATTCAGACATGCGCCAGCCTCGGTCGGCTCTCTCCGGGAGACACTAAGATCTCCTCACTGACTTTGGTGTTCCTTGGTCTCACCAGCGCGTCCTAGCTGTGCCGAGCTCACACCCACCCTGTTTGGTGTAAGCCACAGGTCCACAACGTTCATCAGCTCTGGAAATCCCTCAACAATTGTGTCCAGTTTCACCACGAATTCCTTCTCCATATCCTCACCATTTTCTTTTACCCCCTCATCAAATTACTCCCTTCCGTCTAATCTGCTGATTAACTCATTCATTTTATCTTAAATTATTATG
In the case of B2, the “Fold Change” value (EE transcriptome [3]) is reported as 2.308.

B3: SEQ_ID_#245 (nucleic acid, listed as Homo sapiens)
DNA: TTTTTTTTTTGTATTTTTTGCAGGGACAGGGTTTCACCATATTGCTCAGGGTAGTCTCGAACTCCTGAGCTCAAGGGATCCACCCTGCCTTGGCCTCCCAGTGTGCTGGGATTTCACACGTGAGCCACCGAGCCCAGCTACATTCTTATTTCCTAAACTTTACAAGTTCACACTCTTCCCTTTAAACAAATGTGCCCCCTCTGGCGGTGTCATTTGAGTCCCGGTGTATGTCATTAAGCCTCTTAACCTCAACCACTACTTCCCACTGAAATAACTCTATTTTCTTTTTTTCTAATGAAAAAGTAAGACATGTTCTATGTAAAAATTAAAATATGGTGAGCACTTACCACTTACTATGAGCCAGGCATTGAACTAAGTATTTTTTAATCTTATTTTCATCCTCGTGATATGAGGTCAGTGCTTTGATGAGTTCCATTTTACGTAAGAAAGTAGTTAAG
For B3, the “Fold Change” value (EE transcriptome [3]) was 2.303.

B4: SEQ_ID_#186 (nucleic acid, listed as Homo sapiens)
DNA: CACCGGCTACAAGGCTAGACCGGGGGCTCGCATATCTCCACTTGCAGCTGCCACTGCCATTAGAAGAACTTGCTCAGCCAGCTCCTGGGCCCCAGGAAAAGGACAAGTGTCACCCAGAACAGAGCCACCTCCAGCTGCACTCAGCTCCAGAAGCTGGCCCAGCCGGTCCAGTACACCTTTTAAATAATGTCCTCTACGTGCCGGTGTGGAAGTAGCCCGGATGCAATTGAATGAACAACAGACGGTGCTTTCCAGGACGGCGCTGTGCTTTCCAGGATGGTGCTGTGCTTTCATTCATTTGGGTAGCTCCTCTGTGAGCCTCCCAGCGCCGACTGCAGAGCCCCCACTCTCCAGCCTGCAAGACCCCGAAATTCAAGCCACACAAAGAAAGGAGGAGGGGGCCGTGGCATTTACTGAACCTTATAAAACTGTCAGCAAAACAGCCCTTAGGCTTGGACTCCCTGCTAGCCGGGTTTTACGGTGCTGAAGTCAGCATCTTGATTCAGCTGCATAAATAATCTCCTGCAGTCCTGCAAGGCCTGGGGTAGGAGAGGGTATGGGGACCAGGGCACTCTGTAAGGGCTGGATAGGAACCCCAGGGAATAAGACAGACCAATGCGGGACTTCAGACTCCACTGCAGCGGGATCGGG
For B4, the “Fold Change” value (EE transcriptome [3]) was 2.617.

B5: SEQ_ID_#52 (nucleic acid, listed as Homo sapiens)
DNA: TTTTTTTCCAAGGGGAGAATGAAGCCATTTTATTTAGGGGAATGTTAAAACAAAGCCATATACAATCTGTAACAAATACAATACAATTGTTTGTTCCCTAGTCCTGAATAATTACAGTATATACAAAATCTGTAAGGCACTGGTTCCCCCAAAAGAACAAATGAGTCTTCTTGTGAAACAGACAACGAAACCCCTATATTGCCAACTTTTCTCCAAAAAATATGGCATTGTTTTTTTGTTTTGTTTTACAAGAGGAATCACAATTGCTAAATTAAGTCACTTCTGATGCCATTTCTTTCATTTCCACTGCTATGTGTCTGGGTTTTCTAAGGCAATGTAACTACTGAACATGTTCAAGTTTAAAAAACTATACTTCTCTCAGTGCCGTTCCACCCACAAACAAAGAAGAATCAGATCA
With B5 the “Fold Change” value (EE transcriptome [3]) was 5.183.
